Values of other authors as cited in patent US6004792A, “Human lysophospholipase” (Incyte Pharmaceuticals, Inc., priority 1998, dated 1999).

Molecular target: T1, monomeric 24 kD lysophospholipase (LPL) from rat liver (GI 1552244; SEQ ID NO:3) (Rattus norvegicus, UniProt P70470)
T1 construct: isolated a monomeric, 24 kD LPL from rat liver; host or cells: rat liver (enzyme isolated from tissue, Sugimoto et al. 1996)
Conditions: substrate 1-palmitoyl-glycero-3-phosphocholine

T1 sequence (P70470 whole entry): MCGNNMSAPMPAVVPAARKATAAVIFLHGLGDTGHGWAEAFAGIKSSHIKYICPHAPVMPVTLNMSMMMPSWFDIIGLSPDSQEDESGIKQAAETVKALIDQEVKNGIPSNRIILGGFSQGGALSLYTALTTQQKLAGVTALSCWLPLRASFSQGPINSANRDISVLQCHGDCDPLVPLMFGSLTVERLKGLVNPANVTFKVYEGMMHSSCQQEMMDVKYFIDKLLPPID

## CCCCCCCCCCCCCCCC(=O)OCC(O)COP(=O)([O-])OCC[N+](C)(C)C (stereo not shown) [1-palmitoyl-glycero-3-phosphocholine]
  Vmax: 1.55 µM/min/mg
